The record followed here is patent US7820623B2 (priority 2006, dated 2010).

Bridge positions count the residues as written; N and C are the ends. Square brackets hold non-standard residues; d marks the D form. Peptide text beside a SMILES is read from it. 1Nal = N[C@@H](Cc1cccc2ccccc12)C(=O)O

The subject of assay [1] is thapsigargin-induced IFN-g production in human whole blood. The class given is cell-based. The following applies: read-out: Analogue Activity (IC50) WB/IFNg.
Assay [2] relates to thapsigargin-induced IL-2 production in human whole blood. The following applies: read-out: Analogue Activity (IC50) WB/IL-2.

Turning to `CC[C@H](C)[C@@H]1NC(=O)[C@H](CCCCN)NC(=O)[C@@H](NC(=O)[C@H](CCCCN)NC(=O)[C@@H](NC(=O)[C@H](CC(N)=O)NC(=O)[C@@H](NC(=O)[C@@H](NC(=O)[C@@H](NC(=O)CN)C(C)C)[C@@H](C)CC)[C@@H](C)CC)C(C)C)CSSC[C@@H]2NC(=O)[C@H](CCCCN)NC(=O)CNC(=O)[C@H](Cc3ccccc3)NC(=O)[C@H](CCCNC(=N)N)NC(=O)[C@H](C)NC(=O)CNC(=O)[C@H](C)NC(=O)[C@H](CCCCN)NC(=O)[C@H](CCCCN)NC(=O)[C@@H]3CSSC[C@@H](C(=O)N[C@H](C(=O)N4CCC[C@H]4C(=O)N[C@@H](CCCCN)C(=O)O)[C@@H](C)O)NC(=O)[C@H](Cc4c[nH]cn4)NC(=O)[C@H](CSSC[C@H](NC(=O)[C@H](CCC(N)=O)NC(=O)[C@H](CCCNC(=N)N)NC(=O)[C@H](CO)NC1=O)C(=O)N[C@@H](CC(C)C)C(=O)N[C@@H](CCC(=O)O)C(=O)N1CCC[C@H]1C(=O)N3)NC(=O)[C@H](CCCCN)NC(=O)CNC(=O)[C@H](CC(N)=O)NC(=O)[C@H](CCSC)NC2=O` [M23A] (H-GVIINVKCKISRQCLEPCKKAGARFGKCMNGKCHCTPK-OH; disulfide 8-28, 14-33, 18-35), the IC50 in assay [1] and in assay [2] was 0.275 nM each time.

Take `CC[C@H](C)[C@@H]1NC(=O)[C@H](CCCCN)NC(=O)[C@@H](NC(=O)[C@H](CCCCN)NC(=O)[C@@H](NC(=O)[C@H](CC(N)=O)NC(=O)[C@@H](NC(=O)[C@@H](NC(=O)[C@H](CCCNC(=N)N)NC(=O)CN)[C@@H](C)CC)[C@@H](C)CC)C(C)C)CSSC[C@@H]2NC(=O)[C@H](CCCCN)NC(=O)CNC(=O)[C@H](Cc3ccccc3)NC(=O)[C@H](CCCNC(=N)N)NC(=O)[C@H](CCSC)NC(=O)CNC(=O)[C@H](C)NC(=O)[C@H](CCCCN)NC(=O)[C@H](CCCCN)NC(=O)[C@@H]3CSSC[C@@H](C(=O)N[C@H](C(=O)N4CCC[C@H]4C(=O)N[C@@H](CCCCN)C(=O)O)[C@@H](C)O)NC(=O)[C@H](Cc4c[nH]cn4)NC(=O)[C@H](CSSC[C@H](NC(=O)[C@H](CCC(N)=O)NC(=O)[C@H](CCCNC(=N)N)NC(=O)[C@H](CO)NC1=O)C(=O)N[C@@H](CC(C)C)C(=O)N[C@@H](CCC(=O)O)C(=O)N1CCC[C@H]1C(=O)N3)NC(=O)[C@H](CCCCN)NC(=O)CNC(=O)[C@H](CC(N)=O)NC(=O)[C@H](CCSC)NC2=O` [V2R] (H-GRIINVKCKISRQCLEPCKKAGMRFGKCMNGKCHCTPK-OH; disulfide 8-28, 14-33, 18-35): the IC50 in assay [1] amounted to 0.986 nM; in assay [2] it was 0.775 nM.

For `CC[C@H](C)[C@@H]1NC(=O)[C@H](CCCCN)NC(=O)[C@@H](NC(=O)[C@H](CCCCN)NC(=O)[C@@H](NC(=O)[C@H](CC(N)=O)NC(=O)[C@@H](NC(=O)[C@@H](NC(=O)[C@@H](NC(=O)CN)C(C)C)[C@@H](C)CC)[C@@H](C)CC)C(C)C)CSSC[C@@H]2NC(=O)[C@H](CCCCN)NC(=O)CNC(=O)[C@H](Cc3cccc4ccccc34)NC(=O)[C@H](CCCNC(=N)N)NC(=O)[C@H](CCSC)NC(=O)CNC(=O)[C@H](C)NC(=O)[C@H](CCCCN)NC(=O)[C@H](CCCCN)NC(=O)[C@@H]3CSSC[C@@H](C(=O)N[C@H](C(=O)N4CCC[C@H]4C(=O)N[C@@H](CCCCN)C(=O)O)[C@@H](C)O)NC(=O)[C@H](Cc4c[nH]cn4)NC(=O)[C@H](CSSC[C@H](NC(=O)[C@H](CCC(N)=O)NC(=O)[C@H](CCCNC(=N)N)NC(=O)[C@H](CO)NC1=O)C(=O)N[C@@H](CC(C)C)C(=O)N[C@@H](CCC(=O)O)C(=O)N1CCC[C@H]1C(=O)N3)NC(=O)[C@H](CCCCN)NC(=O)CNC(=O)[C@H](CC(N)=O)NC(=O)[C@H](CCSC)NC2=O` [F25Nal] (H-GVIINVKCKISRQCLEPCKKAGMR[1Nal]GKCMNGKCHCTPK-OH; disulfide 8-28, 14-33, 18-35), the IC50 in assay [1] came to 1.69 nM; in assay [2], 1.73 nM.

Take `CC[C@H](C)[C@@H]1NC(=O)[C@H](CCCCN)NC(=O)[C@@H](NC(=O)[C@H](CCCCN)NC(=O)[C@@H](NC(=O)[C@H](CC(N)=O)NC(=O)[C@@H](NC(=O)[C@@H](NC(=O)[C@@H](NC(=O)CN)C(C)C)[C@@H](C)CC)[C@@H](C)CC)C(C)C)CSSC[C@@H]2NC(=O)[C@H](CCCCN)NC(=O)CNC(=O)[C@H](Cc3ccccc3)NC(=O)[C@H](CCCNC(=N)N)NC(=O)[C@H](CCSC)NC(=O)[C@H](CCCNC(=N)N)NC(=O)[C@H](C)NC(=O)[C@H](CCCCN)NC(=O)[C@H](CCCCN)NC(=O)[C@@H]3CSSC[C@@H](C(=O)N[C@H](C(=O)N4CCC[C@H]4C(=O)N[C@@H](CCCCN)C(=O)O)[C@@H](C)O)NC(=O)[C@H](Cc4c[nH]cn4)NC(=O)[C@H](CSSC[C@H](NC(=O)[C@H](CCC(N)=O)NC(=O)[C@H](CCCNC(=N)N)NC(=O)[C@H](CO)NC1=O)C(=O)N[C@@H](CC(C)C)C(=O)N[C@@H](CCC(=O)O)C(=O)N1CCC[C@H]1C(=O)N3)NC(=O)[C@H](CCCCN)NC(=O)CNC(=O)[C@H](CC(N)=O)NC(=O)[C@H](CCSC)NC2=O` [G22R] (H-GVIINVKCKISRQCLEPCKKARMRFGKCMNGKCHCTPK-OH; disulfide 8-28, 14-33, 18-35): the IC50 in assay [1] came out at 0.349 nM; in assay [2], 0.292 nM.

`CC[C@H](C)[C@@H]1NC(=O)[C@H](CCCCN)NC(=O)[C@@H](NC(=O)[C@H](CCCCN)NC(=O)[C@@H](NC(=O)[C@H](CC(N)=O)NC(=O)[C@@H](NC(=O)[C@@H](NC(=O)[C@@H](NC(=O)CN)C(C)C)[C@@H](C)CC)[C@@H](C)CC)C(C)C)CSSC[C@@H]2NC(=O)[C@H](CCCCN)NC(=O)CNC(=O)[C@H](Cc3ccccc3)NC(=O)[C@H](CCCNC(=N)N)NC(=O)[C@H](CCSC)NC(=O)CNC(=O)[C@H](C)NC(=O)[C@H](CCCCN)NC(=O)[C@H](CCCCN)NC(=O)[C@@H]3CSSC[C@@H](C(=O)N[C@H](C(=O)N4CCC[C@H]4C(=O)N[C@@H](CCCCN)C(=O)O)[C@@H](C)O)NC(=O)[C@H](Cc4c[nH]cn4)NC(=O)[C@H](CSSC[C@H](NC(=O)[C@H](CCC(N)=O)NC(=O)[C@H](CCCNC(=N)N)NC(=O)[C@H](CO)NC1=O)C(=O)N[C@@H](CC(C)C)C(=O)N[C@@H](CCC(=O)O)C(=O)N[C@@H](CCC(=O)O)C(=O)N3)NC(=O)[C@H](CCCCN)NC(=O)CNC(=O)[C@H](CC(N)=O)NC(=O)[C@H](CCSC)NC2=O` [P17E] (H-GVIINVKCKISRQCLEECKKAGMRFGKCMNGKCHCTPK-OH; disulfide 8-28, 14-33, 18-35): the IC50 in assay [1] turned out to be 0.947 nM; in assay [2], 0.52 nM.

For the compound `CC[C@H](C)[C@@H]1NC(=O)[C@H](CCCCN)NC(=O)[C@@H](NC(=O)[C@H](CCCCN)NC(=O)[C@@H](NC(=O)[C@H](CC(N)=O)NC(=O)[C@@H](NC(=O)[C@@H](NC(=O)[C@@H](NC(=O)CN)C(C)C)[C@@H](C)CC)[C@@H](C)CC)C(C)C)CSSC[C@@H]2NC(=O)[C@H](CCCCN)NC(=O)CNC(=O)[C@H](Cc3ccccc3)NC(=O)[C@H](CCCNC(=N)N)NC(=O)[C@H](CCSC)NC(=O)CNC(=O)[C@H](C)NC(=O)[C@H](CCCCN)NC(=O)[C@H](CCCNC(=N)N)NC(=O)[C@@H]3CSSC[C@@H](C(=O)N[C@H](C(=O)N4CCC[C@H]4C(=O)N[C@@H](CCCCN)C(=O)O)[C@@H](C)O)NC(=O)[C@H](Cc4c[nH]cn4)NC(=O)[C@H](CSSC[C@H](NC(=O)[C@H](CCC(N)=O)NC(=O)[C@H](CCCNC(=N)N)NC(=O)[C@H](CO)NC1=O)C(=O)N[C@@H](CC(C)C)C(=O)N[C@@H](CCC(=O)O)C(=O)N1CCC[C@H]1C(=O)N3)NC(=O)[C@H](CCCCN)NC(=O)CNC(=O)[C@H](CC(N)=O)NC(=O)[C@H](CCSC)NC2=O` [K19R] (H-GVIINVKCKISRQCLEPCRKAGMRFGKCMNGKCHCTPK-OH; disulfide 8-28, 14-33, 18-35), the figures for the IC50 in assay [1] and in assay [2] were 0.062 nM and 0.044 nM, respectively.
